The values that follow come from patent US6156774A, “Beta-thiopropionyl-amino acid derivatives and their use as beta-lactamase inhibitors” (SmithKline Beecham P.L.C., priority 1996, dated 2000).

Broadly, the MIC is the lowest concentration found to suppress growth.

The structures appear in SMILES notation. Read-outs that look alike come from different tables or passages of the source.

For experiment [1], the target named is B. fragilis CfiA metallo-β-lactamase (Bacteroides fragilis, UniProt P25910). Put plainly: I50 screen, nitrocefin reporter substrate. Format: biochemical. The note with it: 25 mM PIPES pH 7, 37° C., nitrocefin 91 μM, 5 minute preincubation, Zn2+ 100 μM; read-out: I50 against B. fragilis CfiA metallo-β-lactamase. How it is done: The inhibitory activity of the compounds of the invention was measured in 25 mM PIPES pH 7 buffer at 10 concentrations (1000, 333, 111, 37, 12.3, 4.1, 1.4, 0.46, 0.15 and 0.05 μM) at 37° C. using nitrocefin (91 μM final concentration) as the reporter substrate. The assays were performed with a 5 minute preincubation of enzyme and inhibitor and were conducted in the presence of added zinc sulphate (Zn^2+ 100 μM, final concentration). the methodology is described in detail in the following references: Payne et al (1991), J. Antimicrob. Chemother., 28:255; Payne et al (1994), Antimicrob. Agents and Chemother., 38:767.

Experiment [2] has as its system Bacteroides fragillis 262 strain, which produces CfiA metallo-β-lactamase. Put plainly: Antibacterial activity (MIC) in combination with meropenem. The class given is cell-based. From the text: Antibacterial activity of compounds of the invention in combination with the carbapenem antibiotic, meropenem, against the Bacteroides fragillis 262 strain, which produces CfiA metallo-β-lactamase:
[MIC=minimum inhibitory concentration (μg/ml)]

Where [3] appears, read: read-out: MIC of compound alone.

Chain of B. fragilis CfiA metallo-β-lactamase (P25910 19-249): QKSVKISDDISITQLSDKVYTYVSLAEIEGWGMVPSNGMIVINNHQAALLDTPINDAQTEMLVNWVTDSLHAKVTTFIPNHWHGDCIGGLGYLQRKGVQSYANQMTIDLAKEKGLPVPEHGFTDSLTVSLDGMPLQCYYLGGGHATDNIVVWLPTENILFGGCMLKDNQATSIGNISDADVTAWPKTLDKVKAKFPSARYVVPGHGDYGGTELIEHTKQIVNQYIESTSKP

With `C[n+]1cccc(COc2ccc([C@@H](NC(=O)C(CS)CCc3ccccc3)C(=O)[O-])cc2)c1` (stereo partly drawn) [Example 67, N-(2'-RS-mercaptomethyl-4'-phenylbutanoyl)-p-(N-methyl-3-pyridiniummethoxy)-D-phenylglycine], the IC50 in experiment [1] is under 1 µM.
Same read-out and setting: next, `CN(C)c1ccc(COc2ccc([C@@H](NC(=O)C(CS)CCc3ccccc3)C(=O)O)cc2)cc1` (single isomer, unassigned) [Example 48, N-(2'-mercaptomethyl-4'-phenylbutanoyl)-p-(p-dimethylamino)-benzyloxy-D-phenylglycine]: under 1 µM; `O=C(N[C@@H](C(=O)O)c1ccc(OCc2ccccn2)cc1)C(CS)CCc1ccccc1` (stereo partly drawn) [Example 56, N-(2'-RS-mercaptomethyl-4'-phenylbutanoyl)-p-(2-pyridylmethoxy)-D-phenylglycine]: under 1 µM.
For `O=C(NC(C(=O)O)c1ccc(Cc2ccccc2)s1)C(CS)CCc1ccccc1` (centres unmarked) [Example 24, 2-[(5-Benzyl)thien-2-yl]-N-[2-(mercaptomethyl)-4-phenylbutyryl]glycine], the MIC in experiment [2] (setting [3]) was over 256 µg/mL.
Take `O=C(O)c1cccc(COc2ccc([C@@H](NC(=O)C(CS)CCc3ccccc3)C(=O)O)cc2)c1` (single isomer, unassigned) [Example 50, N-(2'-mercaptomethyl-4'-phenylbutanoyl)-p-(m-carboxy)-benzyloxy-D-phenylglycine]: the IC50 in experiment [1] was under 1 µM.
The same measure, in the same setting: for `O=C(NC(C(=O)O)c1cccc(Oc2ccccc2)c1)C(CS)CCc1ccccc1` (single isomer, unassigned) [Example 3, N-(2'-mercaptomethyl-4'-phenylbutanoyl)-m-phenoxy-phenylglycine] the value was under 1 µM; for `O=C(NC(C(=O)O)c1ccc(Cc2ccccc2)s1)C(CS)CCc1ccccc1` (racemic) [34 (more polar isomer), 2-[(5-Benzyl)thien-2-yl]-N-[2-(mercaptomethyl)-4-phenylbutyryl]glycine], under 1 µM.
On the same count and under the same terms, for `O=C(N[C@@H](C(=O)O)c1ccc(OCc2ccncc2)cc1)C(CS)CCc1ccccc1` (stereo partly drawn) [Example 55, N-(2'-RS-mercaptomethyl-4'-phenylbutanoyl)-p-(4-pyridylmethoxy)-D-phenylglycine] the value was under 1 µM.
In the case of `O=C(N[C@@H](C(=O)O)c1ccc(OCc2cccs2)cc1)C(CS)CCc1ccccc1` (single isomer, unassigned) [Example 21, N-(2'-mercaptomethyl-4'-phenylbutanoyl)-p-(2"-thienylmethoxy)-D-phenylglycine], the IC50 in experiment [1] is under 1 µM.
Consider `O=C(N[C@@H](C(=O)O)c1ccc(OCc2ccccc2)cc1)C(CS)CCc1ccccc1` (single isomer, unassigned) [Example 19, N-(2'-mercaptomethyl-4'-phenylbutanoyl)-p-benzyloxy-D-phenylglycine], for which the IC50 in experiment [1] was under 1 µM.
Regarding `O=C(N[C@@H](C(=O)O)c1ccc(OCc2ccc(OCc3ccccc3)cc2)cc1)C(CS)CCc1ccccc1` (single isomer, unassigned) [Example 69, N-(2'-mercaptomethyl-4'-phenylbutanoyl)-p-(p-benzyloxy)-benzyloxy-D-phenylglycine], in experiment [1], the IC50 is under 1 µM.
Same read-out and setting: for `O=C(N[C@@H](C(=O)O)c1ccc(OCc2ccc([N+](=O)[O-])cc2)cc1)C(CS)CCc1ccccc1` (single isomer, unassigned) [Example 53, N-(2'-mercaptomethyl-4'-phenylbutanoyl)-p-(p-nitro)-benzyloxy-D-phenylglycine] the value was under 1 µM.
As to `O=C(NC(C(=O)O)c1cccc(Oc2ccccc2)c1)C(CS)CCc1ccccc1` (single isomer, unassigned) [Example 4, N-(2'-mercaptomethyl-4'-phenylbutanoyl)-m-phenoxy-phenylglycine], the MIC in experiment [2] (setting [3]) is over 256 µg/mL. The IC50 in experiment [1] was under 1 µM.
As for `CN(C)c1ccc(CCOc2ccc([C@@H](NC(=O)C(CS)CCc3ccccc3)C(=O)O)cc2)cc1` (single isomer, unassigned) [Example 66, N-(2'-mercaptomethyl-4'-phenylbutanoyl)-p-(p-dimethylamino)-phenethyloxy-D-phenylglycine], the IC50 in experiment [1] was under 1 µM.
`C[C@@H](O)[C@H]1C(=O)N2C(C(=O)O)=C(S[C@@H]3CN[C@H](C(=O)N(C)C)C3)[C@H](C)[C@H]12` [meropenem, reference compound]: the MIC in experiment [2] (read-out: MIC of meropenem alone) was over 128 µg/mL.
Regarding `O=C(NC(C(=O)O)c1ccc(CC2CCOC2)s1)C(CS)CCc1ccccc1` (centres unmarked) [Example 26, 2-[5-(Tetrahydrofuran-3-ylmethyl)thien-2-yl]-N-[2-(mercaptomethyl)-4-phenylbutyryl]glycine], the MIC in experiment [2] (setting [3]) is over 256 µg/mL.
